Experiment [1] concerns the target T1, Oxysterols receptor LXR-beta (Homo sapiens, UniProt P55055). As to the kind of experiment: Antagonist activity at human LXR-beta transfected in HEK293 cells after 16 hrs by luciferase reporter gene assay in presence of 0.1 uM N-(4-(1,1,1,3,3,3-hexafluoro-2-hydroxypropan-2-yl)phenyl)-N-(2,2,2-trifluoroethyl)benzenesulfonamide. The class given is cell-based. On the technique in general: A reporter such as luciferase makes a cellular process visible.

Experiment [2] addresses Oxysterols receptor LXR-alpha (Homo sapiens, UniProt Q13133). As to the kind of experiment: Antagonist activity at human LXR-alpha transfected in HEK293 cells after 16 hrs by luciferase reporter gene assay in presence of 0.3 uM N-(4-(1,1,1,3,3,3-hexafluoro-2-hydroxypropan-2-yl)phenyl)-N-(2,2,2-trifluoroethyl)benzenesulfonamide. Format: cell-based.
Experiment [3] concerns the target T1, Oxysterols receptor LXR-beta. As to the kind of experiment: Binding affinity to LXR-beta ligand binding domain (unknown origin) by TR-FRET assay in presence of 0.1 uM agonist N-(4-(1,1,1,3,3,3-hexafluoro-2-hydroxypropan-2-yl)phenyl)-N-(2,2,2-trifluoroethyl)benzenesulfonamide. On the technique in general: In TR-FRET formats the signal depends on donor and acceptor labels being close together.

The target of experiment [4] is T2, Peroxisome proliferator-activated receptor alpha (Homo sapiens) (UniProt Q07869).
T2 sequence (whole entry): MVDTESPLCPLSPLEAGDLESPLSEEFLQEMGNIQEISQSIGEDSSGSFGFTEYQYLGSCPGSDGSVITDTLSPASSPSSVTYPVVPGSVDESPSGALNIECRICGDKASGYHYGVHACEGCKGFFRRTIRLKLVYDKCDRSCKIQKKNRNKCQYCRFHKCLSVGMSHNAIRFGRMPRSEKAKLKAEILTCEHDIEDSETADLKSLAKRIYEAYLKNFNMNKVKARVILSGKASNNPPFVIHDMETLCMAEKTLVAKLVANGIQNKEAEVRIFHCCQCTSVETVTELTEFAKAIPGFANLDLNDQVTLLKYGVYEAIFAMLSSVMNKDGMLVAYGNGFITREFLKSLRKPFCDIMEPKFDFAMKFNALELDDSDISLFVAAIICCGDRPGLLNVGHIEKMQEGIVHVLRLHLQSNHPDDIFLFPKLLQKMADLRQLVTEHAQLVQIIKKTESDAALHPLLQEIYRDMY
As to the kind of experiment: Agonist activity at PPAR-alpha (unknown origin) by luciferase reporter gene assay.

Experiment [5] relates to THP-1. As to the kind of experiment: Effect on ABCA1 gene expression in human THP1 cells at 10 uM by RT-PCR analysis. Format: functional, cell-based.
Experiment [6] has as its system THP-1. Briefly: Effect on SREBP-1c gene expression in human THP1 cells at 10 uM by RT-PCR analysis. The class given is functional, cell-based.
Experiment [7] has as its target T3, Peroxisome proliferator-activated receptor gamma (Homo sapiens) (UniProt P37231).
T3 sequence (whole entry): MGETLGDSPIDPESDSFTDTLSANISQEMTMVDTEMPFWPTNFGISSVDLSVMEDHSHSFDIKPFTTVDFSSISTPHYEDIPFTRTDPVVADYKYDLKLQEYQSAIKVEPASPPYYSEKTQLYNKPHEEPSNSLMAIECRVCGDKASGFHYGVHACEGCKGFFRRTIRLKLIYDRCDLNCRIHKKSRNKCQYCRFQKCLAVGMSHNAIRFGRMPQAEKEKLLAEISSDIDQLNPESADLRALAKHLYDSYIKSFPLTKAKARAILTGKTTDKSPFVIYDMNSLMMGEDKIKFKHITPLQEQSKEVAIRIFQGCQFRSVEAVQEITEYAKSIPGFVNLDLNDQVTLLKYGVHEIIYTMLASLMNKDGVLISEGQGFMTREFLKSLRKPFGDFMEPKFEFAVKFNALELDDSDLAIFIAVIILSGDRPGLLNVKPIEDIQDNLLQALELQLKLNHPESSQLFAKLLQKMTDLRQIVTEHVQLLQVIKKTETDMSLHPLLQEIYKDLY
As to the kind of experiment: Agonist activity at PPAR-gamma (unknown origin) by luciferase reporter gene assay.

The target in experiment [8] is T4, Peroxisome proliferator-activated receptor delta (Homo sapiens) (UniProt Q03181).
T4 sequence (whole entry): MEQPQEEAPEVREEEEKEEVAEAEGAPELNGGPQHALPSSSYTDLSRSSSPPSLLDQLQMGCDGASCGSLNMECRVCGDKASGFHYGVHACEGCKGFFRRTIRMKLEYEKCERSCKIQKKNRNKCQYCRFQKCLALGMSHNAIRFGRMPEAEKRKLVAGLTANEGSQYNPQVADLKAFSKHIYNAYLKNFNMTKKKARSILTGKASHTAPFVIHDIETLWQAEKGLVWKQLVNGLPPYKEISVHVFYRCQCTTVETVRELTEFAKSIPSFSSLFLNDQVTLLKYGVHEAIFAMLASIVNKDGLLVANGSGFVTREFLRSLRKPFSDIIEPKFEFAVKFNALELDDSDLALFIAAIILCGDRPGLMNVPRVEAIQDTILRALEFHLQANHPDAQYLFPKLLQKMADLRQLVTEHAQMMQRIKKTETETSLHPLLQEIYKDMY
As to the kind of experiment: Agonist activity at PPAR-delta (unknown origin) by luciferase reporter gene assay.

Experiment [9] concerns THP-1. Briefly: Inhibition of LPS-induced IL-6 production in human THP1 cells transfected with LXR-beta CRISPR/Cas9 knockout plasmid at 5 uM after 18 hrs by ELISA. Format: functional, cell-based. On the technique in general: In an ELISA, binding on a coated surface is turned into a signal by an enzyme label.

The source made the active and inactive calls. The rule behind the calls is not given here.

T1 sequence (P55055 whole entry): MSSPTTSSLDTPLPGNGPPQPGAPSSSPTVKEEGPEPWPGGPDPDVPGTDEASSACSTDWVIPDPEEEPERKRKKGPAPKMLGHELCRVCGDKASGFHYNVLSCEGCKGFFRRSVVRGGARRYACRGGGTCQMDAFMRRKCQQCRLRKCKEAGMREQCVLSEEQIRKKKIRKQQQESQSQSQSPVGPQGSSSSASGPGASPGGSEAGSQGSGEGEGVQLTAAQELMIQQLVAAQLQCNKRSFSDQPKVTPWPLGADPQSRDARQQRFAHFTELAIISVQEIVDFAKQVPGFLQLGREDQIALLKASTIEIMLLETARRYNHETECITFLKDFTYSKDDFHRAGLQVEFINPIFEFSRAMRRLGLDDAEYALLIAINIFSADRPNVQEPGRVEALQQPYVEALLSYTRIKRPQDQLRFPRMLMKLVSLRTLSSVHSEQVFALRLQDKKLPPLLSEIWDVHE
Sequence of Oxysterols receptor LXR-alpha (Q13133 whole entry, the tested form may be a part): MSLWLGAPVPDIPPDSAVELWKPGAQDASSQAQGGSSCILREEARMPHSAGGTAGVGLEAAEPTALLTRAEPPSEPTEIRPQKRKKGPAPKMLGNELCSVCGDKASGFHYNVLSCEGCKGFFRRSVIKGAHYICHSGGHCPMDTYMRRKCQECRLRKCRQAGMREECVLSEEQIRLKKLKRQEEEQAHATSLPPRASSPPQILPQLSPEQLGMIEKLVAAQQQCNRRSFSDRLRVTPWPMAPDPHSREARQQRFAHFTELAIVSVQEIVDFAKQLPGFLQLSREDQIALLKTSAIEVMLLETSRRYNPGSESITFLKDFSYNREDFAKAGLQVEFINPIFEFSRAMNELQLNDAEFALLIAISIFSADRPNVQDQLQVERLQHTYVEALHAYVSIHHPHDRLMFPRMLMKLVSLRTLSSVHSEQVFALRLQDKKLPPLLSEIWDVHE

The term IC50 denotes the concentration at which inhibition is half-maximal. Consider `COc1ccc(/C=C\c2ccccc2N2C(=O)c3ccccc3C2=O)cc1OC`, for which the IC50 in experiment [1] came to 21 µM; in [2], 17 µM.

In the case of `COc1ccc(/C=C/c2ccccc2N2C(=O)c3ccccc3C2=O)cc1OC`, the IC50 in [1] is 4.3 µM; in experiment [3], 1.8 µM; in experiment [2] it was 3.3 µM. The inhibition entry in experiment [4], in experiment [7] and in experiment [8] was “Active” each time. In addition, the outcome in the experiment with THP-1 [5] and with THP-1 [6] was inactive. Besides, in the experiment on THP-1 [9], the inhibition entry was “inactive”.

The record behind these values is ChEMBL document CHEMBL3621179, “Styrylphenylphthalimides as Novel Transrepression-Selective Liver X Receptor (LXR) Modulators” (ACS Med Chem Lett, 2015).
